The record followed here is patent US20030100109A1, “Methods and compositions for in vitro germination and propagation of polygonatum cirrhifolium royle” (priority 2001, published 2003).

“And” between values parts separate entries of the source, which are not always exact repeats. Equal values may be shown once.

The test system of test [1] is Polygonatum cirrhifolium Royle seeds. Nature of the test: Induction of germination (hypocotyl emergence) on modified MS medium with GA3 at diurnal 30/20° C. in dark. The conditions noted are these: modified MS culture medium, 20/30° C. in dark. It counts as in vivo. On the procedure: Ripe purplish berries from plants grown in the wild were collected and dehydrated for 15 days at room temperature (29° C.±2° C.). Seeds were collected from dehydrated berries and washed in tap water with 1-2 drops of Tween-20™ for 2 hours and rinsed three times in distilled water. Seeds were then surface sterilized with 0.1% mercuric chloride (HgCl2) for 3 minutes. Mercuric chloride was removed by washing seeds four times in sterile distilled water. Sterilized, rinsed seeds were placed on semi-solid culture medium in sterile disposable plastic Petri plates (10 cm×2 cm). Macro and micro nutrients in the basal medium were that of Murashige and Skoog's (Murashige, T. and Skoog, F. […]. Physiol Plant 15: 433 -497) but modified to contain 2.2 g/L NH4NO3, 2.0 g/L KNO3, 0.44 g/l CaCl2.2H2O, 0.37 g/L MgSO4.7H20, 0.17 g/L KH2PO4, 37.25 mg/L Na2 EDTA, 27.8 mg/L FeSO4.7H20, 0.83 mg/L KI, 6.2 mg/L H3BO3, 22.3 mg/L MnSO4.4H20, 8.6 mg/L ZnSO4.7H20, 0.25 mg/L Na2 MoO4.2H20, 0.025 mg/L CuSO4.5H2O, 0.025 mg/L CoCl2.6H20. This medium was supplemented with 250 mg/L myo-inosital, 0.5 mgl/l nicotinic acid, 0.5 mg/L pyridoxine HCl, 3 mg/L thiamine HCl, 2 mg/L glycine, 30 g/L sucrose, 7.5 g/L agar and 2, 10, 25, and 50 mg/L gibberellic acid. The pH of the medium was adjusted to 5.8 before adding agar. Medium was sterilized at 121° C. (15 lb. psi pressure) for 20 minutes. […] Seeds with emerged hypocotyl were transferred under aseptic conditions to the above defined basal culture medium containing gibberellic acid at 5, 25, 50 and 100 mg/L. Transferred plants were incubated in an environment having 8-16-hr days under about 2000 lux of light and about 8-16-hr nights in total darkness at a constant temperature of 20° C. ([…]) and at 50-60% RH. Illumination was provided by 40-watt cool, white fluorescent tubes. Germination synchronization as indicated by differentiated epicotyl with emergent coleoptile and radicle was recorded on daily basis. Tables 1 and 2 show the induction of germination as indicated by the emergence of hypocotyl at temperature of 30° C. (±2° C.; dark; RH 50-60%) and diurnal temperature of 30/20° C. (±2° C.; dark; RH 50-60%). In this experiment also there were 4 treatments with varying levels of GA3 2-50 mg/L. Supplemented to the modified MS basal culture medium containing of 2.2 g/L NH4NO3, 2.0 g/L KNO3, 0.44 g/l CaCl2.2H2O, 0.37 g/L MgSO4.7H20, 0.17 g/L KH2PO4, 37.25 mg/L Na2 EDTA, 27.8 mg/L FeSO4.7H20, 0.83 mg/L KI, 6.2 mg/L H3BO3, 22.3 mg/L MnSO4.4H20, 8.6 mg/L ZnSO4.7H20, 0.25 mg/L Na2 MoO4.2H20, 0.025 mg/L CuSO4.5H2O, 0.025 mg/L CoCl2.6H20, […], 0.5 mg/L nicotinic acid, 0.5 mg/L pyridoxine HCl, 3 mg/L thiamine HCl, 2 mg/L glycine, 30 g/L sucrose and 7.5 g/L agar. Cultures were incubated under diurnal temperature regime of 30/20° C. (dark). Each treatment consisted of 15 replicates with 5 seeds in each. Germination is induced in all the treatments (table 2). Maximum germination of 62.12% is obtained at 50 mg/L Of GA3.

Test [2] has as its system Polygonatum cirrhifolium Royle seeds with emerged hypocotyl. The experiment in a line: Synchronization of germination: release of epicotyl, coleoptile and radicle from seeds with emerged hypocotyl. The note with it: modified MS culture medium, 20° C., 16 hr photoperiod. Format: in vivo. On the procedure:
Germination was evaluated every three days by examining seeds for hypocotyl emergence. […] Seeds with emerged hypocotyl were transferred under aseptic conditions to the above defined basal culture medium containing gibberellic acid at 5, 25, 50 and 100 mg/L. Transferred plants were incubated in an environment having 8-16-hr days under about 2000 lux of light and about 8-16-hr nights in total darkness at a constant temperature of 20° C. ([…]) and at 50-60% RH. Illumination was provided by 40-watt cool, white fluorescent tubes. Germination synchronization as indicated by differentiated epicotyl with emergent coleoptile and radicle was recorded on daily basis. The consequent step of synchronization of germination is presented in table 3 in which epicotyl with emergent coleoptile and radicle is manifest under 8-16 hr photoperiod (light intensity 2000-3500 lux) at an incubation temperature of 20° C. (RH 50-60%). In this experiment seeds with emerged hypocotyl were transferred to the culture to modified MS basal culture medium containing of 2.2 g/L NH4NO3, 2.0 g/L KNO3, 0.44 g/l CaCl2.2H2P, 0.37 g/L MgSO4.7H20, 0.17 g/L KH2PO4, 37.25 mg/L Na2 EDTA, 27.8 mg/L FeSO4.7H20, 0.83 mg/L KI, 6.2 mg/L H3BO3, 22.3 mg/L MnSO4.4H20, 8.6 mg/L ZnSO4.7H20, 0.25 mg/L Na2MoO4.2H20, 0.025 mg/L CuSO4.5H2O, 0.025 mg/L CoCl2.6H20, 250 mg/L myo-inositol, 0.5 mg/L nicotinic acid, 0.5 mg/L pyridoxine HCl, 3 mg/L thiamine HCl, 2 mg/L glycine, 30 g/L sucrose and 7.5 g/L agar and supplemented with 4 concentrations of GA3 viz. […], 25, 50 and 100 mg/L. Cultures were incubated at 20° C. under 16 hr photoperiod in a growth chamber. there were four treatments in total and each treatment consisted of 15 replicates with 4 seeds with emerged hypocotyl in each replicate. The effect of various treatments on the release of epicotyl, coleoptile radicle and days to release/synchronization is described in table 3.100 mg/L of GA3 results in 100% synchronization after 11 days of culture.

Consider `C=C1C[C@]23C[C@@]1(O)CC[C@H]2[C@@]12C=C[C@H](O)[C@@](C)(C(=O)O1)[C@H]2[C@@H]3C(=O)O` [GA3, gibberellic acid], for which the Duration of germination is 32-73 in test [1] (GA3 2 mg/L), 34-72 in test [1] (GA3 10 mg/L), 27-63 in test [1] (GA3 25 mg/L) and 23-58 in test [1] (GA3 50 mg/L). The Percent germination in test [1] (GA3 2 mg/L) was 12.41 ± 6.17%; in test [1] (GA3 10 mg/L) it was 18.06 ± 4.32%; in test [1] (GA3 25 mg/L), 46.00 ± 5.11%; in test [1] (GA3 50 mg/L), 62.12% and 62.12 ± 3.66%. In addition, the “Days to release epicotyl, coleoptile & radicle” value is given as 21 days in test [2] (GA3 10 mg/L), 18 days in test [2] (GA3 25 mg/L), 14 days in test [2] (GA3 50 mg/L) and 11 days in test [2] (GA3 100 mg/L). The “Percent seeds with epicotyl, coleoptile & radicle” value in test [2] (GA3 10 mg/L) was 23.71 ± 2.00%; in test [2] (GA3 25 mg/L), 78.23 ± 3.11%; in test [2] (GA3 50 mg/L) it was 100.00 ± 0.00%; in test [2] (GA3 100 mg/L) it was 100% and 100.00 ± 0.00%.
